Values after ≈ are worked out from the molar mass of the structure shown. “Also recorded” adds a separate entry of the source. Read-outs that look alike come from different tables or passages of the source.
Experiments:
[1] = test system: Staphylococcus aureus Rosenbach (ATCC 25923); test: Antibacterial microbroth dilution MIC/MBC against S. aureus; type: cell-based; settings: S. aureus Rosenbach ATCC 25923; for MIC / MIC90 / MBC90 (minimal bactericidal concentration) / MBC: Staphylococcus aureus; for MIC: ATCC25923, 24 h; for MIC90 / MBC90 (minimal bactericidal concentration) / MBC: ATCC25923; for MBC90 (minimal bactericidal concentration): read-out: MBC (IC90) / minimal bactericidal concentration (MBC90); for MBC: treated culture transferred to new media, read-out: MBC90 [(μM) mean ± SD]; for Relative antibacterial activity compared with another compound: 1 versus 2, 9 versus 8
Procedure: The minimum inhibition concentration (MIC) and the minimum bactericidal/fungicidal concentration (MBC/MFC) were carried out using the microbroth dilution method according to the Clinical Laboratory Standards Institute (CLSI) guidelines, with some modifications. […] The tested compounds were then incubated together with bacterial cells at 37 °C for 24 h and with fungal spores at 25 °C for 72 h, respectively. The OD600 measurements were subsequentially carried out to evaluate the inhibitory effect of the compounds. To further determine the bactericidal and fungicidal effects of the compounds, 5 µL of the treated culture was transferred onto new media microplates. The plates were incubated under the same condition, followed by the OD600 measurement. […] The cells were then treated with the compounds for 72 h at 37 °C in the presence of 5% CO2. Any Cytotoxic effect was detected with PrestoBlue™ cell viability reagent (ThermoFisher Scientific, Waltham, MA, USA). The cells were read with a fluorescence reading at an excitation of 560 nm and an emission 590 nm. Standard inhibitors, gentamicin (Gibco, Waltham, MA, USA), amphotericin (Sigma-Aldrich, St. Louis, MO, USA) and puromycin (Sigma-Aldrich, St. Louis, MO, USA) were used as the assay controls for the antibacterial, antifungal and cytotoxicity assay. […] GraphPad Prism 8 software (GraphPad, San Diego, CA, USA) was used for the analysis of the bioactivity to determine the respective IC90 and IC50 values.

[2] = test system: Clostridium difficile infections; parameters: method as in PMID 25534727, PMID 22315981; settings: phase 2 clinical trial, humans; cited from earlier work
[3] = Figure 5, read-out: MIC (IC90) / minimal inhibitory concentration (MIC90)
[4] = 37 °C, 24 h, OD600, mean ± SD, triplicates, read-out: MIC90 [(μM) mean ± SD]

Row | SMILES | Antibacterial activity against S. aureus (in words) [1] | MIC [1, 3] | MIC90 [1, 4] | MBC90 (minimal bactericidal concentration) ([1]; Figure 5) | MIC90 [1, 3] | MBC ([1]; OD600, mean ± SD, triplicates) | Relative antibacterial activity compared with another compound [1] | Recurrence rates versus vancomycin [2]
1 | CNC(=O)CC1NC(=O)c2csc(n2)-c2ccc(-c3nc(C4=NC(C(=O)N5CCCC5C(=O)O)CO4)cs3)nc2-c2csc(n2)-c2csc(n2)C(C(O)c2ccccc2)NC(=O)CNC(=O)c2csc(n2)C(C(C)C)NC(=O)c2csc1n2 (centres unmarked) [Compound 3, GE2270F3] | inactive; also recorded: no bioactivity | 2 to 11 µM (≈ 2.47 to 13.6 µg/mL) | > 70 µM | > 70 µM | > 70 µM | > 70 µM |  | 
2 | CNC(=O)C[C@@H]1NC(=O)c2csc(n2)-c2ccc(-c3nc(C(=O)OC)cs3)nc2-c2csc(n2)-c2csc(n2)[C@H]([C@@H](O)c2ccccc2)NC(=O)CNC(=O)c2nc(sc2COC)[C@H](C(C)C)NC(=O)c2nc1sc2C [Compound 8] | displayed activities | 3.17 µM (≈ 3.61 µg/mL) | 3.17 ± 0.28 µM (≈ 3.61 µg/mL) | 16.2 µM (≈ 18.5 µg/mL) | 3.17 µM (≈ 3.61 µg/mL) | 16.2 ± 1.48 µM (≈ 18.5 µg/mL) |  | 
3 | CNC(C)C1CCC(N)C(OC2C(N)CC(N)C(OC3OCC(C)(O)C(NC)C3O)C2O)O1 (centres unmarked) [Gentamicin, gentamicin, reference compound] |  |  | 0.04 ± 0.01 µM (≈ 0.0191 µg/mL) | 0.1 µM (≈ 0.0478 µg/mL) | 0.04 µM (≈ 0.0191 µg/mL) | 0.1 ± 0.01 µM (≈ 0.0478 µg/mL) |  | 
4 | CNC(=O)CC1NC(=O)c2csc(n2)-c2ccc(-c3nc(C4=NC(C(=O)N5CCCC5C(=O)O)CO4)cs3)nc2-c2csc(n2)-c2csc(n2)C(C(O)c2ccccc2)NC(=O)CNC(=O)c2nc(sc2COC)C(C(C)C)NC(=O)c2csc1n2 (centres unmarked) [Compound 4, GE2270F4] | inactive; also recorded: no bioactivity | 2 to 11 µM (≈ 2.56 to 14.1 µg/mL) | > 70 µM | > 70 µM | > 70 µM | > 70 µM |  | 
5 | CNC(=O)C[C@@H]1NC(=O)c2csc(n2)-c2ccc(-c3nc(C(=O)N[C@@H](CO)C(=O)N4CCC[C@H]4C(N)=O)cs3)nc2-c2csc(n2)-c2csc(n2)[C@H]([C@@H](O)c2ccccc2)NC(=O)CNC(=O)c2csc(n2)[C@H](C(C)C)NC(=O)c2nc1sc2C [Compound 5] | inactive | 2 to 11 µM (≈ 2.53 to 13.9 µg/mL) | > 70 µM | > 70 µM | > 70 µM | > 70 µM |  | 
6 | CNC(=O)CC1NC(=O)c2csc(n2)-c2ccc(-c3nc(C4=NC(C(=O)N5CCCC5C(=O)O)CO4)cs3)nc2-c2csc(n2)-c2csc(n2)C(C(O)c2ccccc2)NC(=O)CNC(=O)c2nc(sc2COC)C(C(C)C)NC(=O)c2nc1sc2C (centres unmarked) [Compound 1, GE2270F1] | displayed activities | 2.63 µM (≈ 3.4 µg/mL) | 2.63 ± 0.12 µM (≈ 3.4 µg/mL) | 18.5 µM (≈ 23.9 µg/mL) | 2.63 µM (≈ 3.4 µg/mL) | 18.5 ± 1.34 µM (≈ 23.9 µg/mL) | three-fold more active | 
7 | CNC(=O)C[C@@H]1NC(=O)c2csc(n2)-c2ccc(-c3nc(C(=O)O)cs3)nc2-c2csc(n2)-c2csc(n2)[C@H]([C@@H](O)c2ccccc2)NC(=O)CNC(=O)c2nc(sc2COC)[C@H](C(C)C)NC(=O)c2nc1sc2C [Compound 9] | displayed activities |  | 10.3 ± 0.75 µM (≈ 11.6 µg/mL) | 52 µM (≈ 58.5 µg/mL) | 10.3 µM (≈ 11.6 µg/mL) | 52 ± 1.41 µM (≈ 58.5 µg/mL) | at least a three-fold reduction | 
8 | CNC(=O)C[C@@H]1NC(=O)c2csc(n2)-c2ccc(-c3nc(C(=O)OC)cs3)nc2-c2csc(n2)-c2csc(n2)[C@H]([C@@H](O)c2ccccc2)NC(=O)CNC(=O)c2csc(n2)[C@H](C(C)C)NC(=O)c2nc1sc2C [Compound 7] | displayed activities |  | 4.71 ± 0.37 µM (≈ 5.16 µg/mL) | 12.4 µM (≈ 13.6 µg/mL) | 4.71 µM (≈ 5.16 µg/mL) | 12.4 ± 1.06 µM (≈ 13.6 µg/mL) |  | 
9 | CNC(=O)C[C@@H]1NC(=O)c2csc(n2)-c2ccc(-c3nc(N(CCCCC(=O)O)C(=O)O[C@H]4CC[C@H](C(=O)O)CC4)cs3)nc2-c2csc(n2)-c2csc(n2)[C@H]([C@@H](O)c2ccccc2)NC(=O)CNC(=O)c2nc(sc2COC)[C@H](C(C)C)NC(=O)c2nc1sc2C [LFF571] |  |  |  |  |  |  |  | higher recurrence rates than conventional antibiotics treatment with vancomycin
10 | CNC(=O)CC1NC(=O)c2csc(n2)-c2ccc(-c3nc(C4=NC(C(=O)N5CCCC5C(=O)O)CO4)cs3)nc2-c2csc(n2)-c2csc(n2)C(C(O)c2ccccc2)NC(=O)CNC(=O)c2csc(n2)C(C(C)C)NC(=O)c2nc1sc2C (centres unmarked) [Compound 2, GE2270F2] | displayed activities |  | 6.94 ± 0.83 µM (≈ 8.66 µg/mL) | 67.9 µM (≈ 84.7 µg/mL) | 6.94 µM (≈ 8.66 µg/mL) | 67.9 ± 1.55 µM (≈ 84.7 µg/mL) |  | 
11 | CNC(=O)C[C@@H]1NC(=O)c2csc(n2)-c2ccc(-c3nc(C(=O)N[C@@H](CO)C(=O)N4CCC[C@H]4C(N)=O)cs3)nc2-c2csc(n2)-c2csc(n2)[C@H]([C@@H](O)c2ccccc2)NC(=O)CNC(=O)c2nc(sc2COC)[C@H](C(C)C)NC(=O)c2nc1sc2C [Compound 6] | displayed activities; also recorded: demonstrated antibacterial activity | 2 to 11 µM (≈ 2.62 to 14.4 µg/mL) | 7.07 ± 0.55 µM (≈ 9.25 µg/mL) |  | 7.07 µM (≈ 9.25 µg/mL) |  |  | 

Reference: paper PMC9822014, “Antibacterial Thiopeptide GE2270-Congeners from Nonomuraea jiangxiensis” (Molecules, 2022)
